Measurements from patent publication US20050020576A1, “Kappa agonist compounds and pharmaceutical formulations thereof” (priority 1996, published 2005).
Where a name gives a salt, the structure may show the parent alone.

| Structure (SMILES) | melting point |
| --- | --- |
| COc1cc(CC(=O)N(C)[C@H](CN2CCCC2)c2ccccc2)c(S(=O)(=O)N2CCCC2)cc1OC (as salt: HCl) [Example 134, 2-[2-(N-Pyrrolidinesulfamoyl)-4,5-dimethoxyphenyl]-N-methyl-N-[(1S)-1-phenyl-2-[(1-pyrrolidinyl)ethyl]]acetamide] | 240 to 242 °C |
| CN(C(=O)Cc1ccccc1N)[C@H](CN1CCCC1)c1cccc(N)c1 (as salt: HCl) | 219 to 222 °C |
| CN(C(=O)Cc1cc2c(cc1S(=O)(=O)N(C)C)OCO2)[C@H](CN1CCCC1)c1ccccc1 (as salt: HCl) [Example 132, 2-[2-(N-Dimethylsulfamoyl)-4,5-methylenedioxyphenyl]-N-methyl-N-[(1S)-1-phenyl-2-[(1-pyrrolidinyl)ethyl]]acetamide] | 269 to 271 °C |
| CN(C(=O)Cc1ccc(N)cc1)[C@H](CN1CCCC1)c1cccc([N+](=O)[O-])c1 (as salt: HCl) | 200 °C (dec.) |
| CN(C(=O)Cc1ccc(Cl)c(Cl)c1)[C@H](CN1CCCC1)c1cccc(NS(N)(=O)=O)c1 (racemic) (as salt: hydrochloride) [Example 3c, 2-(3,4-Dichlorophenyl)-N-methyl-N-[(1R,S)-1-(3-sulfamidophenyl)-2-(1-pyrrolidinyl)ethyl]acetamide hydrochloride] | 198 to 200 °C |
| CN(C(=O)Cc1ccc(O)c(NS(C)(=O)=O)c1)[C@H](CN1CCCC1)c1ccccc1 (as salt: HCl) [Example 124, 2-(3-N-Methylsulfonamido-3-amino-4-hydroxyphenyl)-N-methyl-N-[(1S)-1-phenyl-2-(1-pyrrolidinyl)ethyl]acetamide] | 228 to 230 °C |
| COc1cccc(C(CN2CCCC2)N(C)C(=O)Cc2ccccc2NS(C)(=O)=O)c1 (racemic) (as salt: sulfonic acid salt) [Example 3uu, (R,S)-1-[2-(Methanesulfonylamino)phenyl-N-methylacetamido]-1-(3-methoxyphenyl)-2-(1-pyrrolidino)-ethane, methanesulfonic acid salt] | 135 °C (dec.) |
| COc1cc(CC(=O)N(C)[C@H](CN2CC[C@H](O)C2)c2ccccc2)cc(OC)c1OC.Cl | 230 to 232 °C |
| CN(C(=O)Cc1ccccc1[N+](=O)[O-])[C@H](CN1CCCC1)c1cccc([N+](=O)[O-])c1 (as salt: HCl) | 258 to 259 °C |
| COC(=O)N1CCN(C(=O)Cc2ccccc2[N+](=O)[O-])C(CN2CCCC2)C1 (racemic) (as salt: hydrochloride) [(R,S-9d), (R,S)-Methyl 4-[(2-nitrophenyl)acetyl]-3-[(1-Pyrrolidinyl)-methyl]-1-piperazine-carboxylate hydrochloride] | 228 °C |
| O=C(Cc1ccc(C(F)(F)F)cc1)N1CCN(C(=O)C(F)(F)F)CC1CN1CCCC1 (racemic) (as salt: hydrochloride) [Example 1h, 4-Trifluoroacetyl-1-[(-4-trifluoromethylphenyl)acetyl]-2-(R,S)-(1-pyrrolidinyl)methyl]piperazine hydrochloride] | 140 to 145 °C |
| CN(C(=O)Cc1ccccc1NS(C)(=O)=O)[C@@H]1CCCC[C@H]1N1CCCC1.Cl (racemic) | 229 to 231 °C |
| CN(C(=O)Cc1ccc(S(C)(=O)=O)cc1)[C@@H]1c2ccccc2C[C@H]1N1CCCC1 (racemic) (as salt: HCl) | 246 to 248 °C |
| COc1ccc(CC(=O)N(C)[C@H](CN2CCCC2)c2ccccc2)cc1NS(C)(=O)=O (as salt: methane sulfonate) [Example 122, 2-(3-N-Methylsulfonamido-3-amino-4-methoxyphenyl)-N-methyl-N-[(1S)-1-phenyl-2-(1-pyrrolidinyl)ethyl]acetamide methane sulfonate] | 149 to 151 °C |
| COc1cc(CC(=O)N(C)[C@H](CN2CCCC2)c2ccccc2)c(S(=O)(=O)N2CCN(C)CC2)cc1OC (as salt: HCl) [Example 138] | 255 to 257 °C (dec.) |
| CN(C(=O)C(c1ccccc1)c1ccccc1)C1CCCCC1N1CCCC1 (racemic) (as salt: HCl) [Example 5s, (±)-trans-N-Methyl-N-[2-(1-pyrrolidinyl)cyclohexyl]2,2-dphenylacetamide Hydrochloride] | 295 to 297 °C (dec.) |
| COC(=O)N1CCN(C(=O)Cc2ccccc2N)C(CN2CCCC2)C1 (racemic) (as salt: hydrochloride) [(R,S-9f), (R,S)-Methyl 4-[(2-aminophenyl)acetyl]-3-[(1-pyrrolidinyl)-methyl]-1-piperazine-carboxylate dihydrochloride] | 195 °C (dec.) |
| CN(C(=O)Cc1ccccc1NS(C)(=O)=O)C(CN1CCCC1)c1cccc(O)c1 (racemic) (as salt: sulfonic acid salt) [Example 3vv, (R,S)-1-[2-(Methanesulfonylamino)phenyl-N-methylacetamido]-1-(3-hydroxyphenyl)-2-(1-pyrrolidino)-ethane, methanesulfonic acid salt] | 232 to 234 °C |
| Cc1ccc(S(=O)(=O)N2CCN(C(=O)Cc3ccc(Cl)c(Cl)c3)[C@H](CN3CCCC3)C2)cc1 (as salt: hydrochloride) [(R-3l), (R)-4-(4-Methyphenylsulfonyl)-1-[(3,4-dichlorophenyl)acetyl]-2-[(1-Pyrrolidinyl)methyl]-piperazine hydrochloride] | 240 °C (dec.) |
| CC(=O)N1CCN(C(=O)Cc2cccc([N+](=O)[O-])c2)C(CN2CCCC2)C1 (racemic) (as salt: hydrochloride) [(R,S-10d), (R,S)-4-Acetyl-1-[(3-nitrophenyl)acetyl]-3-[(1-pyrrolidinyl)-methyl]piperazine-carboxylate hydrochloride] | 143 to 145 °C |
| Cl.NS(=O)(=O)N1CCN(C(=O)Cc2ccc(Cl)c(Cl)c2)[C@H](CN2CCCC2)C1 | 183 to 185 °C |
| COc1cc(CC(=O)N(C)[C@H](CN2CCCC2)c2ccccc2)c(S(=O)(=O)N2CCOCC2)cc1OC (as salt: HCl) [Example 140, 2-[2-N-(Morpholinesulfamoyl)-4,5-dimethoxyphenyl]-N-methyl-N-[(1S)-1-phenyl-2-[1-(pyrrolidinyl)ethyl]]acetamide] | 229 to 231 °C |
| CN(C(=O)Cc1ccc(S(C)(=O)=O)cc1)[C@H](CN1CCCC1)c1cccc([N+](=O)[O-])c1 (as salt: HCl) | 276 to 277 °C |
| COC(=O)N1CCN(C(=O)Cc2ccccc2OC)C(CN2CCCC2)C1 (racemic) (as salt: hydrochloride) [(R,S-9e)] | 120 °C |
| COc1cc(CC(=O)N(C)[C@H](CN2CC[C@H](O)C2)c2ccccc2)c(S(=O)(=O)N2CCOCC2)cc1OC (as salt: HCl) [Example 141, 2-[2-N-(Morpholinesulfamoyl)-4,5-dimethoxyphenyl]-N-methyl-N-[(1S)-1-phenyl-2-[1-(3S)-(3-hydroxypyrrolidinyl)ethyl]]acetamide] | 158 to 161 °C |
| COC(=O)N1CCN(C(=O)Cc2ccc(C(F)(F)F)cc2)C(CN2CCCC2)C1 (racemic) (as salt: hydrochloride) [(R,S-9b), (R,S)-Methyl 4-[(4-trifluoromethylphenyl)acetyl]-3-[(1-pyrrolidinyl)-methyl]-1-piperazinecarboxylate hydrochloride] | 210 °C |
